Data as given in the supplement of paper PMC11208160.

Test: recombinant UMI read abundance after kanamycin selection (control-corrected) (log10(CPM+1)); higher = more efficient recombination; extreme values may be limits of the assay; sequences stand for … in AGTGCAGAGAAAATCGGCCAGTTTTCTCTGCCTGCAGTCCGCATGCCGTGGGACCCCTTGGGTTCTAACCTGTTGCCTAGATTTATGCAGCGGACTGCCTTTCTCCCAAAGTGATAAACCGG…AGGTTGGTTTCACT; site = the 11-nt donor
Method in brief: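 Under IPTG (0.07 mM) plus kanamycin, or without selection, Escherichia coli carrying a UMI-tagged donor and donor-binding-loop pair library and a target plasmid for the IS621 bridge recombinase were plated in two replicates. Recombinant UMIs were PCR-amplified across the donor–target junction and sequenced. Counts were converted to CPM, averaged over replicates, scaled by control-derived factors and reported as log10(CPM+1).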
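Also: IS621 bridge recombinase in Escherichia coli cells against a fixed T5 target plasmid.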

Sequence	recombinant UMI read abundance (log10)
CTAGTATCATGGACCGGTTTTCCCGGTAATCCGTATTTGAC (site CTTGTGTCTGT)	0
CTAGTATCATGGACCGGTTTTCCCGGTAATCCGTATTTGAC (site CTTTTATCTGT)	1
CTAGTATCATGGACCGGTTTTCCCGGTAATCCGTATTTGAC (site GGAGTATCTGT)	2.07
CTAGTATCATGGACCGGTTTTCCCGGTAATCCGTATTTGAC (site GTAGGATCTGT)	0.00691
CTAGTATCATGGACCGGTTTTCCCGGTAATCCGTATTTGAC (site GTAGTACCTGT)	0
CTAGTATCATGGACCGGTTTTCCCGGTAATCCGTATTTGAC (site GTAGTATCTAT)	0
CTAGTATCATGGACCGGTTTTCCCGGTAATCCGTATTTGAC (site GTAGTATCTGC)	0
CTAGTATCATGGACCGGTTTTCCCGGTAATCCGTATTTGAC (site GTAGTATCTGT)	0
CTAGTATCATGGACCGGTTTTCCCGGTAATCCGTATTTGAC (site GTAGTGTCTGT)	0.0419
CTAGTATCATGGACCGGTTTTCCCGGTAATCCGTATTTGAC (site GTATTATCTGT)	0
CTAGTATCATGGACCGGTTTTCCCGGTAATCCGTATTTGAC (site GTTGTATCTGT)	0.0569
CTAGTATCATGGACCGGTTTTCCCGGTAATCCGTATTTGAC (site TAAGTATCTGT)	0
CTAGTATCATGGACCGGTTTTCCCGGTAATCCGTATTTGAC (site TTAATATCTGT)	0
CTAGTATCATGGACCGGTTTTCCCGGTAATCCGTATTTGAC (site TTAGAATCTGT)	0
CTAGTATCATGGACCGGTTTTCCCGGTAATCCGTATTTGAC (site TTAGTAACTGT)	0
CTAGTATCATGGACCGGTTTTCCCGGTAATCCGTATTTGAC (site TTAGTATCTCT)	0
CTAGTATCATGGACCGGTTTTCCCGGTAATCCGTATTTGAC (site TTAGTATCTGA)	0
CTAGTATCATGGACCGGTTTTCCCGGTAATCCGTATTTGAC (site TTAGTATCTGT)	1.71
CTAGTATCATGGACCGGTTTTCCCGGTAATCCGTATTTGAC (site TTAGTCTCTGT)	0
CTAGTATCATGGACCGGTTTTCCCGGTAATCCGTATTTGAC (site TTCGTATCTGT)	0
CTAGTATCATGGACCGGTTTTCCCGGTAATCCGTATTTGAT (site CTAGTATCTAT)	2.21
CTAGTATCATGGACCGGTTTTCCCGGTAATCCGTATTTGAT (site CTAGTATCTCT)	0.557
CTAGTATCATGGACCGGTTTTCCCGGTAATCCGTATTTGAT (site CTAGTATCTGT)	1.31

Sequence	recombinant UMI read abundance (log10)
CTAGTATCATGGACCGGTTTTCCCGGTAATCCGTATTTGAT (site CTAGTATCTTT)	1.07
CTAGTATCATGGACCGGTTTTCCCGGTAATCCGTATTTGCA (site CTAGTATCTGT)	0.00642
CTAGTATCATGGACCGGTTTTCCCGGTAATCCGTATTTGCA (site CTAGTATCTTG)	2.72
CTAGTCCCATGGACCGGTTTTCCCGGTAATCCGTATTTGCT (site CTAGTCCCTAG)	1.79
CTAGTCCCATGGACCGGTTTTCCCGGTAATCCGTATTTGGA (site CTAGTCCCTTC)	0.281
CTAGTCGCATGGACCGGTTTTCCCGGTAATCCGTATTTGCG (site ATAGTCGCTCG)	0.00637
CTAGTCGCATGGACCGGTTTTCCCGGTAATCCGTATTTGCG (site CTAGTCGCTCG)	0.966
CTAGTCGCATGGACCGGTTTTCCCGGTAATCCGTATTTGCG (site GTAGTCGCTCG)	0
CTAGTCGCATGGACCGGTTTTCCCGGTAATCCGTATTTGCG (site TTAGTCGCTCG)	0.0191
CTAGTCTCATGGACCGGTTTTCCCGGTAATCCGTATTTGAC (site CTAGTATCTGT)	0.627
CTAGTCTCATGGACCGGTTTTCCCGGTAATCCGTATTTGAC (site CTAGTCTCTGT)	2.93
CTAGTCTCATGGACCGGTTTTCCCGGTAATCCGTATTTGAC (site CTAGTGTCTGT)	0
CTAGTCTCATGGACCGGTTTTCCCGGTAATCCGTATTTGAC (site CTAGTTTCTGT)	0.799
CTAGTGTCATGGACCGGTTTTCCCGGTAATCCGTATTTGAC (site CTAGTATCTGT)	1.23
CTAGTGTCATGGACCGGTTTTCCCGGTAATCCGTATTTGAC (site CTAGTCTCTGT)	0
CTAGTGTCATGGACCGGTTTTCCCGGTAATCCGTATTTGAC (site CTAGTGTCTGT)	0
CTAGTGTCATGGACCGGTTTTCCCGGTAATCCGTATTTGAC (site CTAGTTTCTGT)	0
CTAGTTACATGGACCGGTTTTCCCGGTAATCCGTATTTGTC (site CTAGTTACTGA)	2.57
CTATAAACATGGACCGGTTTTCCCGGTAATCCGTATTTGGA (site CTATAAACTTC)	2.34
CTATATGCATGGACCGGTTTTCCCGGTAATCCGTATTTGTA (site CTATATGCTTA)	2.55
CTATCATCATGGACCGGTTTTCCCGGTAATCCGTATTTGCG (site CGATCATCTAG)	0
CTATCATCATGGACCGGTTTTCCCGGTAATCCGTATTTGCG (site CTATCATCTCG)	1.87
CTATGATCATGGACCGGTTTTCCCGGTAATCCGTATTTGCG (site CTATGATCTCG)	3.16

Sequence	recombinant UMI read abundance (log10)
CTATTACCATGGACCGGTTTTCCCGGTAATCCGTATTTGAC (site CTAGTATCTGT)	0
CTATTACCATGGACCGGTTTTCCCGGTAATCCGTATTTGAC (site CTATTACCTGT)	0
CTATTCCCATGGACCGGTTTTCCCGGTAATCCGTATTTGTT (site CTATTCCCTAA)	1.42
CTCAAGACATGGACCGGTTTTCCCGGTAATCCGTATTTGGG (site CTCAAGACTCC)	0
CTCATATCATGGACCGGTTTTCCCGGTAATCCGTATTTGTC (site CACATATCTGA)	0.65
CTCATATCATGGACCGGTTTTCCCGGTAATCCGTATTTGTC (site CCCATATCTGA)	0.718
CTCATATCATGGACCGGTTTTCCCGGTAATCCGTATTTGTC (site CGCATATCTGA)	0
CTCATATCATGGACCGGTTTTCCCGGTAATCCGTATTTGTC (site CTCATATCTGA)	1.5
CTCATCGCATGGACCGGTTTTCCCGGTAATCCGTATTTGCC (site CTCATCGCTGG)	0.346
CTCCACACATGGACCGGTTTTCCCGGTAATCCGTATTTGGG (site CTCCACACTCC)	0.0377
CTCCAGCCATGGACCGGTTTTCCCGGTAATCCGTATTTGAG (site CTCCAGCCTCT)	0.0271
CTCCCCACATGGACCGGTTTTCCCGGTAATCCGTATTTGAG (site CTCCCAACTCT)	0.00953
CTCCCCACATGGACCGGTTTTCCCGGTAATCCGTATTTGAG (site CTCCCCACTCT)	0.891
CTCCCCACATGGACCGGTTTTCCCGGTAATCCGTATTTGAG (site CTCCCGACTCT)	0.0121
CTCCCCACATGGACCGGTTTTCCCGGTAATCCGTATTTGAG (site CTCCCTACTCT)	0
CTCCCTACATGGACCGGTTTTCCCGGTAATCCGTATTTGCG (site CTCCCTACTCA)	0.397
CTCCCTACATGGACCGGTTTTCCCGGTAATCCGTATTTGCG (site CTCCCTACTCC)	0.0203
CTCCCTACATGGACCGGTTTTCCCGGTAATCCGTATTTGCG (site CTCCCTACTCG)	0.488
CTCCCTACATGGACCGGTTTTCCCGGTAATCCGTATTTGCG (site CTCCCTACTCT)	0.55
CTCCGGCCATGGACCGGTTTTCCCGGTAATCCGTATTTGCT (site CTCCGGCCTAG)	0.589
CTCCGTACATGGACCGGTTTTCCCGGTAATCCGTATTTGAG (site CTCCATACTCT)	0.649
CTCCGTACATGGACCGGTTTTCCCGGTAATCCGTATTTGAG (site CTCCCTACTCT)	0.0126
